SMILES strings stand for the structures.

For the assay, the target named is human orexin-2 receptor (Homo sapiens (Human), UniProt O43614). Nature of the assay: Human orexin 2 receptor radioligand binding ([3H]-EMPA competition). Particulars: HEK293 cells stably expressing human orexin-2 receptor; [3H]-EMPA 5 nM final; apparent Ki=IC50/(1+C/Kd), Kd=2 nM; read-out: OR 2 Ki.
Sequence of human orexin-2 receptor (O43614 whole entry): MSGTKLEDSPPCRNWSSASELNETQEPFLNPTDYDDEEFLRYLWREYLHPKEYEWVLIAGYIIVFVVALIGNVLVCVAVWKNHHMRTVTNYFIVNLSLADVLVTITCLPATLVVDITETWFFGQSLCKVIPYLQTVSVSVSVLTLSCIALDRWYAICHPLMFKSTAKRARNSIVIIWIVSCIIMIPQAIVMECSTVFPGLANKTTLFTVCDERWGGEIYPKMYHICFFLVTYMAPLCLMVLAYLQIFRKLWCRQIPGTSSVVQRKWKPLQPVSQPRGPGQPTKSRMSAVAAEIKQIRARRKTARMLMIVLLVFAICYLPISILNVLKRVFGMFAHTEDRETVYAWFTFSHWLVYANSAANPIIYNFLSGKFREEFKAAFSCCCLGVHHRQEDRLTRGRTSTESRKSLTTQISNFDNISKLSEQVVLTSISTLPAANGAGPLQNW
Take `Cc1cnc(C)c(N2CC3CN(C(=O)c4ccccc4-n4nccn4)CC3C2)n1` (centres unmarked) [Example 155, 2-(3,6-Dimethylpyrazin-2-yl)-5-{[2-(2H-1,2,3-triazol-2-yl)phenyl]carbonyl}octahydropyrrolo[3,4-c]pyrrole]: the Ki is 33 nM.
As for `COc1ccnc(N2CC3CN(C(=O)c4ccccc4-n4nccn4)CC3C2)n1` (centres unmarked) [Example 156, 2-(4-Methoxypyrimidin-2-yl)-5-{[2-(2H-1,2,3-triazol-2-yl)phenyl]carbonyl}octahydropyrrolo[3,4-c]pyrrole], the Ki stood at 39 nM.
Turning to `Cc1cncc(N2CC3CN(C(=O)c4ccc(F)cc4-n4nccn4)CC3C2)n1` (centres unmarked) [Example 158, 2-{[4-Fluoro-2-(2H-1,2,3-triazol-2-yl)phenyl]carbonyl}-5-(6-methylpyrazin-2-yl)octahydropyrrolo[3,4-c]pyrrole], the Ki came to 55 nM.
As for `COc1ccnc(N2CC3CN(C(=O)c4ccc(F)cc4-n4nccn4)CC3C2)n1` (centres unmarked) [Example 159, 2-{[4-Fluoro-2-(2H-1,2,3-triazol-2-yl)phenyl]carbonyl}-5-(4-methoxypyrimidin-2-yl)octahydropyrrolo[3,4-c]pyrrole], the Ki amounted to 45 nM.
The value for `COc1cc(OC)nc(N2CC3CN(C(=O)c4ccc(F)cc4-n4nccn4)CC3C2)n1` (centres unmarked) [Example 160, 2-(4,6-Dimethoxypyrimidin-2-yl)-5-{[4-fluoro-2-(2H-1,2,3-triazol-2-yl)phenyl]carbonyl}octahydropyrrolo[3,4-c]pyrrole] was 58 nM; that for `COc1ccc(C(=O)N2CC3CN(c4nc5ccc(Cl)cc5s4)CC3C2)c(OC)c1` (centres unmarked) [Example 163, 6-Chloro-2-{5-[(2,4-dimethoxyphenyl)carbonyl]hexahydropyrrolo[3,4-c]pyrrol-2(1H)-yl}-1,3-benzothiazole] was 380 nM; that for `O=C(c1ccccc1-c1ccccc1)N1CC2CN(c3nccc(-c4ccccc4)n3)CC2C1` (centres unmarked) [Example 164, 2-(Biphenyl-2-ylcarbonyl)-5-(4-phenylpyrimidin-2-yl)octahydropyrrolo[3,4-c]pyrrole] was 289 nM.
`COc1cccc(OC)c1C(=O)N1CC2CN(c3cnc4ccccc4n3)CC2C1` (centres unmarked) [Example 165, 2-{5-[(2,6-Dimethoxyphenyl)carbonyl]hexahydropyrrolo[3,4-c]pyrrol-2(1H)-yl}quinoxaline]: the Ki worked out at 852 nM.
For `COc1cccc(OC)c1C(=O)N1CC2CN(c3nccc(-c4ccccc4)n3)CC2C1` (centres unmarked) [Example 166, 2-[(2,6-Dimethoxyphenyl)carbonyl]-5-(4-phenylpyrimidin-2-yl)octahydropyrrolo[3,4-c]pyrrole], the Ki is 465 nM.
Consider `COc1ccc(C(=O)N2CC3CN(c4nccc(-c5ccccc5)n4)CC3C2)c(OC)c1` (centres unmarked) [Example 167, 2-[(2,4-Dimethoxyphenyl)carbonyl]-5-(4-phenylpyrimidin-2-yl)octahydropyrrolo[3,4-c]pyrrole], for which the Ki was found to be 411 nM.
Then `O=C(c1ccccc1-c1ccccc1)N1CC2CN(c3cnc4ccccc4n3)CC2C1` (centres unmarked) [Example 168, 2-[5-(Biphenyl-2-ylcarbonyl)hexahydropyrrolo[3,4-c]pyrrol-2(1H)-yl]quinoxaline], with 66 nM.
`O=C(c1ccccc1-c1ccccc1)N1CC2CN(c3nc4ccccc4s3)CC2C1` (centres unmarked) [Example 169, 2-[5-(Biphenyl-2-ylcarbonyl)hexahydropyrrolo[3,4-c]pyrrol-2(1H)-yl]-1,3-benzothiazole]: the Ki was 595 nM.
Then `COc1ccc(C(=O)N2CC3CN(c4cc(C)c5ccccc5n4)CC3C2)c(OC)c1` (centres unmarked) [Example 170, 2-{5-[(2,4-Dimethoxyphenyl)carbonyl]hexahydropyrrolo[3,4-c]pyrrol-2(1H)-yl}-4-methylquinoline], with 945 nM; and `COc1ccc(C(=O)N2CC3CN(c4nc5ccc(OC)cc5s4)CC3C2)c(OC)c1` (centres unmarked) [Example 171, 2-{5-[(2,4-Dimethoxyphenyl)carbonyl]hexahydropyrrolo[3,4-c]pyrrol-2(1H)-yl}-6-methoxy-1,3-benzothiazole], with 780 nM.

The values above are taken from patent publication US8653263B2 (Janssen Pharmaceutica, priority 2009, dated 2014).
